Where “and” joins values, the source holds several entries; their conditions need not be identical. Equal values may be shown once. Read-outs that look alike come from different tables or passages of the source.
Tests used:
H. pylori urease [1] = molecular target: H. pylori urease (Helicobacter pylori, UniProt P14916+P69996); format: biochemical; design: endogenous in cells; host or cells: H. pylori strain 26695 or a clinical isolate
urease [2] = test system: urease
[3] = test system: AGS cells exposed to H. pylori; assay: Cell infection model: AGS cells exposed to H. pylori pre-cultured with inhibitors; format: cell-based, human; conditions: H. pylori pre-cultured with 10 μM inhibitor 24 h; MOI 20; 24 h infection; Hp alone 28.8%
urease [4] = molecular target: T1, urease (Proteus mirabilis, UniProt P17086+P17087+P17088); format: biochemical
T1 construct: endogenous in cells
T1 sequence (P17087 whole entry): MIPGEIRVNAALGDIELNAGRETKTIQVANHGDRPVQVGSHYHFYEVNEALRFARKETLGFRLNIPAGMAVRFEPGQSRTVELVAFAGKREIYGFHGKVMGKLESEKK
T1 sequence (P17088 whole entry): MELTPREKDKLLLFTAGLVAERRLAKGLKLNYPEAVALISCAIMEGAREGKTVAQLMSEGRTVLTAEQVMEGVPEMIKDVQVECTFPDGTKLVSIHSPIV
T1 sequence (P17086 whole entry): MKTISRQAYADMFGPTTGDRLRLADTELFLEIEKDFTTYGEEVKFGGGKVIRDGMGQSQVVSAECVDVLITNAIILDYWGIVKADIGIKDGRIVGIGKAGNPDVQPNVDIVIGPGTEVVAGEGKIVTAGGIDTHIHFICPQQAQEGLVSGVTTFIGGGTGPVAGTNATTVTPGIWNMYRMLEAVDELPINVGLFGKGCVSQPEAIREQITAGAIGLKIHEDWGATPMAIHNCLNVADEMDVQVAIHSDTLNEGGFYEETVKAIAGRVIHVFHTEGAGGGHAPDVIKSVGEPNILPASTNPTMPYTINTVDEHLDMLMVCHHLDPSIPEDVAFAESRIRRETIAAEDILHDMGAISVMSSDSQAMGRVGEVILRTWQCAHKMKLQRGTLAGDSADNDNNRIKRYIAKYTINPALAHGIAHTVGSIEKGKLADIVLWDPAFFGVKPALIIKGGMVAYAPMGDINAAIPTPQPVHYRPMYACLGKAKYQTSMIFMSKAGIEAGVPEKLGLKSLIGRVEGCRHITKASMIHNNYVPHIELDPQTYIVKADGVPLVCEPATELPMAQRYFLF

urease [5] = test system: urease; remark: listed apart in the source
urease [6] = test system: urease; remark: listed apart in the source
urease [7] = molecular target: T2, urease (Pseudomonas aeruginosa, UniProt Q9HUU5+Q9HUU6+Q9HUU8); assay: Urease activity of extracted P. aeruginosa urease (in vitro); format: biochemical
T2 construct: endogenous in cells
T2 sequence (Q9HUU6 whole entry): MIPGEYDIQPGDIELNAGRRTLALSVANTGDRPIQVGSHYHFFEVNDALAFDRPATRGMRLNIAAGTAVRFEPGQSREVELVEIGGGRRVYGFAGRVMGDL
T2 sequence (Q9HUU5 whole entry): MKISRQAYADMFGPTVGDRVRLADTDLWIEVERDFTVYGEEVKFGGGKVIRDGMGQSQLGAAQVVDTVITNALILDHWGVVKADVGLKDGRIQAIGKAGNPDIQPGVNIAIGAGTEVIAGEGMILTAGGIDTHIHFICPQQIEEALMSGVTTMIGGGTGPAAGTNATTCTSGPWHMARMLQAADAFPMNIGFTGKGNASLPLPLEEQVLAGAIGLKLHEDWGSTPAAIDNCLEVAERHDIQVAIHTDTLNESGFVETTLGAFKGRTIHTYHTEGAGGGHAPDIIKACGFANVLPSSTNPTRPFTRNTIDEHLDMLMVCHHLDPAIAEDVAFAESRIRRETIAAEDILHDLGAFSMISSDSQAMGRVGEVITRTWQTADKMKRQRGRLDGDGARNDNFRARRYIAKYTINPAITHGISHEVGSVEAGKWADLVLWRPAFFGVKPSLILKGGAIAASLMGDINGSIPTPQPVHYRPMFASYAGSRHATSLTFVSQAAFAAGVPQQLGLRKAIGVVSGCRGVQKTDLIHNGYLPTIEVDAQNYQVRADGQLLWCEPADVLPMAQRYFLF
T2 sequence (Q9HUU8 whole entry): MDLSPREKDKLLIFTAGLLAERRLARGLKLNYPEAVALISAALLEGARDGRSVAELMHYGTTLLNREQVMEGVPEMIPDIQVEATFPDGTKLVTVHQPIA

[8] = test system: AGS cells with H. pylori infection; assay: AGS cells with H. pylori infection, inhibitors administrated to the AGS cells (S20 Fig); format: cell-based, human; conditions: 10 μM administrated to AGS cells with H. pylori infection
Source text: As expected, low viability of AGS with the supplement of cmpd4 and cmpd8 was observed due to the toxicity of small compounds to mammalian cells. […] (PNG) Click here for additional data file.

urease [9] = test system: urease; remark: listed apart in the source
UreG = UreG (Helicobacter pylori, UniProt Q09066); assay: Fluorescence-quenching titration of UreG (Kd); format: binding, H. pylori
Chain of UreG (Q09066 whole entry): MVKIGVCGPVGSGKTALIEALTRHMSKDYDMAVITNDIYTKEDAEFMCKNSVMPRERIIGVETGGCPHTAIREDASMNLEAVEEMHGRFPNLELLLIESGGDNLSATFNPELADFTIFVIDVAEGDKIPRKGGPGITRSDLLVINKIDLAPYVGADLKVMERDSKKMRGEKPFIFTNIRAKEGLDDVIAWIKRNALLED
Method: Using the relation between the emission intensity at 310 nm and molecule-UreG–bound species, as well as one site-binding model, the Kd values were calculated by a logistic regression model referring to a previous report. […] All fluorescence readings were corrected for the dilution effect.

H. pylori urease [10] = conditions: for Normalized urease activity(%): 40 min
Source text: The starting sample with 20% urease activity was used. […] Because zero is not defined on a log scale, the blank values have been entered as 0.1.

Chain of H. pylori urease (Helicobacter pylori, UniProt P14916+P69996) (P69996 whole entry): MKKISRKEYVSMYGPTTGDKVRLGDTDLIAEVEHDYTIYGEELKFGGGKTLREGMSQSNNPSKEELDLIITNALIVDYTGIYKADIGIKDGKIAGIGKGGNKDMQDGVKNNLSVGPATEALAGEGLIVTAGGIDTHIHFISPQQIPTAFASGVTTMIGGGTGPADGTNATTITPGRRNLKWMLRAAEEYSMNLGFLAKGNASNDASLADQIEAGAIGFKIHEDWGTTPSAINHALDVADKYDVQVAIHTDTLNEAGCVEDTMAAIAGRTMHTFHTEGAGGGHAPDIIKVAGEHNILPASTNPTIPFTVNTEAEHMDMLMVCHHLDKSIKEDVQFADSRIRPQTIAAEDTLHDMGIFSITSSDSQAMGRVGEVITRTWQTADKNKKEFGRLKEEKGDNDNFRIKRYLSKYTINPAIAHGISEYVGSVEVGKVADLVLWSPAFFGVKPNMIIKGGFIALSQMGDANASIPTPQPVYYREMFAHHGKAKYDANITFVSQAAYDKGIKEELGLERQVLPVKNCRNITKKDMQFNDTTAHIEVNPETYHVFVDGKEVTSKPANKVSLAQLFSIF
Chain of H. pylori urease (Helicobacter pylori, UniProt P14916+P69996) (P14916 whole entry): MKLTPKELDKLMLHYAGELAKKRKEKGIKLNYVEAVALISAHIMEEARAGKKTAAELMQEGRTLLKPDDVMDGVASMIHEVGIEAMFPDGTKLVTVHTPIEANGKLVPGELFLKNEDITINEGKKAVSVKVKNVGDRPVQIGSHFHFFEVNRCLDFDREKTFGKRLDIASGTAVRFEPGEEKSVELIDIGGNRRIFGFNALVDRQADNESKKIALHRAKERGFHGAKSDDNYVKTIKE

Compound: CC(=O)NO [AHA, acetohydroxamic acid]
- IC50 (H. pylori urease [1]; AHA incubated with extracted urease, ± SD): 1320 ± 291 µM
- Normalized urease activity(%) (AHA) (H. pylori urease [1]; AHA log[μM] 1.89279): 109.4% and 109.395%
- Normalized urease activity(%) (AHA) (H. pylori urease [1]; AHA log[μM] 2.19382): 96.0% and 96.0334%
- Normalized urease activity(%) (AHA) (H. pylori urease [1]; AHA log[μM] 2.49485): 91.9% and 91.858%
- Normalized urease activity(%) (AHA) (H. pylori urease [1]; AHA log[μM] 2.79588): 93.3% and 93.3194%
- Normalized urease activity(%) (AHA) (H. pylori urease [1]; AHA log[μM] 3.09691): 51.1% and 51.1482%
- Normalized urease activity(%) (AHA) (H. pylori urease [1]; AHA log[μM] 3.39794): 20.5% and 20.4593%
- Normalized urease activity(%) (AHA) (H. pylori urease [1]; AHA log[μM] 3.69897): 2.7% and 2.714%
- Normalized urease activity(%) (AHA) (H. pylori urease [1]; AHA log[μM] 4): 1.3% and 1.253%
- Normalized urease activity(%) (AHA) (H. pylori urease [1]; AHA log[μM] 4.30103): 1.3% and 1.253%
- Normalized urease activity(%) (urease [2]; log(AHA[μM]) 1.79588): 82.0618%
- Normalized urease activity(%) (urease [2]; log(AHA[μM]) 2.09691): 76.8393%
- Normalized urease activity(%) (urease [2]; log(AHA[μM]) 2.39794): 67.9837%
- Normalized urease activity(%) (urease [2]; log(AHA[μM]) 2.69897): 58.901%
- Normalized urease activity(%) (urease [2]; log(AHA[μM]) 3): 52.7702%
- Normalized urease activity(%) (urease [2]; log(AHA[μM]) 3.30103): 45.277%
- Normalized urease activity(%) (urease [2]; log(AHA[μM]) 3.60206): 27.5659%
- Normalized urease activity(%) (urease [2]; log(AHA[μM]) 3.90309): 11.6712%
- Normalized urease activity(%) (urease [2]; log(AHA[μM]) 4.20412): 3.951%
- Normalized urease activity(%) (urease [2]; log(AHA[μM]) 4.50515): 2.589%
- Normalized cell survival (%) [3]: 40.5% ± 8.2% and 40.5405%
- Normalized urease activity(%) (urease [4]; log(AHA[μM]) 1.29073): 83.9311%
- Normalized urease activity(%) (urease [4]; log(AHA[μM]) 1.59176): 78.3381%
- Normalized urease activity(%) (urease [4]; log(AHA[μM]) 1.89279): 61.9141%
- Normalized urease activity(%) (urease [4]; log(AHA[μM]) 2.19382): 45.934%
- Normalized urease activity(%) (urease [4]; log(AHA[μM]) 2.49485): 31.2855%
- Normalized urease activity(%) (urease [4]; log(AHA[μM]) 2.79588): 25.6037%
- Normalized urease activity(%) (urease [4]; log(AHA[μM]) 3.09691): 17.6136%
- Normalized urease activity(%) (urease [4]; log(AHA[μM]) 3.39794): 16.1932%
- Normalized urease activity(%) (urease [4]; log(AHA[μM]) 3.69897): 12.3757%
- Normalized urease activity(%) (urease [4]; log(AHA[μM]) 4): 7.315%
- Normalized urease activity(%) (urease [5]; log(AHA[μM]) 1.79588): 92.5521%
- Normalized urease activity(%) (urease [5]; log(AHA[μM]) 2.09691): 93.0486%
- Normalized urease activity(%) (urease [5]; log(AHA[μM]) 2.39794): 89.0764%
- Normalized urease activity(%) (urease [5]; log(AHA[μM]) 2.69897): 86.0973%
- Normalized urease activity(%) (urease [5]; log(AHA[μM]) 3): 82.6216%
- Normalized urease activity(%) (urease [5]; log(AHA[μM]) 3.30103): 72.6911%
- Normalized urease activity(%) (urease [5]; log(AHA[μM]) 3.60206): 51.3406%
- Normalized urease activity(%) (urease [5]; log(AHA[μM]) 3.90309): 15.0943%
- Normalized urease activity(%) (urease [5]; log(AHA[μM]) 4.20412): 3.674%
- Normalized urease activity(%) (urease [5]; log(AHA[μM]) 4.50515): 1.688%
- Normalized urease activity(%) (urease [6]; log(AHA[μM]) 1.39794): 85.3556%
- Normalized urease activity(%) (urease [6]; log(AHA[μM]) 2.09691): 97.9079%
- Normalized urease activity(%) (urease [6]; log(AHA[μM]) 2.39794): 94.4212%
- Normalized urease activity(%) (urease [6]; log(AHA[μM]) 2.69897): 97.2106%
- Normalized urease activity(%) (urease [6]; log(AHA[μM]) 3): 105.579%
- Normalized urease activity(%) (urease [6]; log(AHA[μM]) 3.30103): 100%
- Normalized urease activity(%) (urease [6]; log(AHA[μM]) 3.60206): 74.198%
- Normalized urease activity(%) (urease [6]; log(AHA[μM]) 3.90309): 38.6332%
- Normalized urease activity(%) (urease [6]; log(AHA[μM]) 4.20412): 16.318%
- Normalized urease activity(%) (urease [6]; log(AHA[μM]) 4.50515): 9.344%
- Normalized urease activity(%) (urease [7]; log(AHA[μM]) 1.79588): 78.186%
- Normalized urease activity(%) (urease [7]; log(AHA[μM]) 2.09691): 95.4076%
- Normalized urease activity(%) (urease [7]; log(AHA[μM]) 2.39794): 91.1022%
- Normalized urease activity(%) (urease [7]; log(AHA[μM]) 2.69897): 92.2503%
- Normalized urease activity(%) (urease [7]; log(AHA[μM]) 3): 91.3892%
- Normalized urease activity(%) (urease [7]; log(AHA[μM]) 3.30103): 81.0563%
- Normalized urease activity(%) (urease [7]; log(AHA[μM]) 3.60206): 50.3444%
- Normalized urease activity(%) (urease [7]; log(AHA[μM]) 3.90309): 18.7715%
- Normalized urease activity(%) (urease [7]; log(AHA[μM]) 4.20412): 5.568%
- Normalized urease activity(%) (urease [7]; log(AHA[μM]) 4.50515): 3.846%
- Ammonia in medium [8]: 2.273 mM
- Normalized cell survival (%) [8]: 14.4144%
- Normalized urease activity(%) (urease [9]; log(AHA[μM]) 1.79588): 92.1939%
- Normalized urease activity(%) (urease [9]; log(AHA[μM]) 2.09691): 91.7831%
- Normalized urease activity(%) (urease [9]; log(AHA[μM]) 2.39794): 89.7288%
- Normalized urease activity(%) (urease [9]; log(AHA[μM]) 2.69897): 88.9071%
- Normalized urease activity(%) (urease [9]; log(AHA[μM]) 3): 90.1397%
- Normalized urease activity(%) (urease [9]; log(AHA[μM]) 3.30103): 80.6902%
- Normalized urease activity(%) (urease [9]; log(AHA[μM]) 3.60206): 55.6286%
- Normalized urease activity(%) (urease [9]; log(AHA[μM]) 3.90309): 27.691%
- Normalized urease activity(%) (urease [9]; log(AHA[μM]) 4.20412): 14.1331%
- Normalized urease activity(%) (urease [9]; log(AHA[μM]) 4.50515): 10.8463%

Compound: Nc1nc2c(ncn2[C@@H]2O[C@H](COP(=O)(O)OP(=O)(O)OP(=O)(O)O)[C@@H](O)[C@H]2O)c(=O)[nH]1 [GTP, guanosine-5'-triphosphate, reference compound]
- Kd (UreG): ~65 µM
- fluorescence intensity (a.u.) (UreG; log(ligand[μM]) 0): 3320 a.u.
- fluorescence intensity (a.u.) (UreG; log(ligand[μM]) 0.30103): 3210 a.u.
- fluorescence intensity (a.u.) (UreG; log(ligand[μM]) 0.60206): 2994.67 a.u.
- fluorescence intensity (a.u.) (UreG; log(ligand[μM]) 0.90309): 2943.33 a.u.
- fluorescence intensity (a.u.) (UreG; log(ligand[μM]) 1.20412): 2860.67 a.u.
- fluorescence intensity (a.u.) (UreG; log(ligand[μM]) 1.50515): 2655 a.u.
- fluorescence intensity (a.u.) (UreG; log(ligand[μM]) 1.80618): 2320.33 a.u.
- fluorescence intensity (a.u.) (UreG; log(ligand[μM]) 2.10721): 1866.33 a.u.
- fluorescence intensity (a.u.) (UreG; log(ligand[μM]) -1.30103): 3394.33 a.u.

Compound: [Ni+2] [Ni]
- Normalized urease activity(%) (H. pylori urease [10]; supplement 0.05 (head prints CBS(μM )), starting sample 20% activity): 19.0%
- Normalized urease activity(%) (H. pylori urease [10]; supplement 0.1 (head prints CBS(μM ))): 18.6%
- Normalized urease activity(%) (H. pylori urease [10]; supplement 0.2 (head prints CBS(μM ))): 18.3%
- Normalized urease activity(%) (H. pylori urease [10]; supplement 0.4 (head prints CBS(μM ))): 17.5%
- restoration of urease activity (H. pylori urease [10]; supplemented to CBS-treated bacterial cell lysate): failed to restore the urease activity completely

Reference: PMC5779714, “Metallochaperone UreG serves as a new target for design of urease inhibitor: A novel strategy for development of antimicrobials” (PLoS Biology, 2018)
